# Laboratory results: patent US6689773B2, “Uracil substituted phenyl sulfamoyl carboxamides” (BASF Aktiengesellschaft, priority 2000, dated 2004)
# Key:
# Type in all cases: in vivo
# [1] = system: ABUTH, Velvetleaf, Abutilon theophrasti, Medic.; test: Postemergence herbicidal evaluation (Example 147); conditions: rating scale 0-9, two to three weeks after treatment
# Summary of the method: (§1)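 About two-week-old seedlings were sprayed postemergence at roughly 0.016–0.032 kg/ha in 80/20 acetone/water with 1.0% methylated seed oil. After two to three weeks in the greenhouse, injury was rated visually on a 0–9 scale against controls, and repeat tests were averaged.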
# [2] = system: ALOMY, Blackgrass, Alopecurus myosuroides; test: Postemergence herbicidal evaluation (Example 147); conditions: rating scale 0-9, two to three weeks after treatment
# Summary of the method: as §1
# [3] = system: AMBEL, Ragweed, Common, Ambrosia artemiisifolia, L.; test: Postemergence herbicidal evaluation (Example 147); conditions: rating scale 0-9, two to three weeks after treatment
# Summary of the method: as §1
# [4] = system: CHEAL, Lambsquarters, Chenopodium album, L. Common; test: Postemergence herbicidal evaluation (Example 147); conditions: rating scale 0-9, two to three weeks after treatment
# Summary of the method: as §1
# [5] = system: DIGSA, Crabgrass, (Hairy) L, Digitaria sanguinalis, (L)Scop; test: Postemergence herbicidal evaluation (Example 147); conditions: rating scale 0-9, two to three weeks after treatment
# Summary of the method: as §1
# [6] = system: ECHCG, Barnyardgrass, Echinochloa crusgalli, (L.)Beau; test: Postemergence herbicidal evaluation (Example 147); conditions: rating scale 0-9, two to three weeks after treatment
# Summary of the method: as §1
# [7] = system: GLXMA, Soybean, Glycine max, (L.) Merr.; test: Postemergence herbicidal evaluation (Example 147); conditions: rating scale 0-9, two to three weeks after treatment
# Summary of the method: as §1
# [8] = system: IPOHE, Morningglory, Ivyleaf, Ipomoea hederacea, (L)Jacq.; test: Postemergence herbicidal evaluation (Example 147); conditions: rating scale 0-9, two to three weeks after treatment
# Summary of the method: as §1
# [9] = system: SETVI, Green foxtail, Setaria viridis, (L.)Beau; test: Postemergence herbicidal evaluation (Example 147); conditions: rating scale 0-9, two to three weeks after treatment
# Summary of the method: as §1
# [10] = system: TRZAW, Winter wheat, Tritium Aestivum, L. (Winter); test: Postemergence herbicidal evaluation (Example 147); conditions: rating scale 0-9, two to three weeks after treatment
# Summary of the method: as §1
# [11] = system: ZEAMX, Field corn, Zea mays L.; test: Postemergence herbicidal evaluation (Example 147); conditions: rating scale 0-9, two to three weeks after treatment
# Summary of the method: as §1
# [12] = system: ABUTH, Velvetleaf, Abutilon theophrasti, Medic.; test: Preemergence herbicidal evaluation (Example 148); conditions: rating scale 0-9, two to four weeks after treatment
# Summary of the method: (§2)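 Sow seed–soil mix onto ~1 in soil; spray aqueous acetone compound solution (~0.125–0.250 kg/ha equivalent); keep on greenhouse benches under standard watering; score injury visually after 2–4 weeks.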
# [13] = system: ALOMY, Blackgrass, Alopecurus myosuroides; test: Preemergence herbicidal evaluation (Example 148); conditions: rating scale 0-9, two to four weeks after treatment
# Summary of the method: as §2
# [14] = system: AMBEL, Ragweed, Common, Ambrosia artemiisifolia, L.; test: Preemergence herbicidal evaluation (Example 148); conditions: rating scale 0-9, two to four weeks after treatment
# Summary of the method: as §2
# [15] = system: CHEAL, Lambsquarters, Chenopodium album, L. Common; test: Preemergence herbicidal evaluation (Example 148); conditions: rating scale 0-9, two to four weeks after treatment
# Summary of the method: as §2
# [16] = system: DIGSA, Crabgrass, (Hairy) L, Digitaria sanguinalis, (L)Scop; test: Preemergence herbicidal evaluation (Example 148); conditions: rating scale 0-9, two to four weeks after treatment
# Summary of the method: as §2
# [17] = system: ECHCG, Barnyardgrass, Echinochloa crusgalli, (L.)Beau; test: Preemergence herbicidal evaluation (Example 148); conditions: rating scale 0-9, two to four weeks after treatment
# Summary of the method: as §2
# [18] = system: GLXMA, Soybean, Glycine max, (L.) Merr.; test: Preemergence herbicidal evaluation (Example 148); conditions: rating scale 0-9, two to four weeks after treatment
# Summary of the method: as §2
# [19] = system: IPOHE, Morningglory, Ivyleaf, Ipomoea hederacea, (L)Jacq.; test: Preemergence herbicidal evaluation (Example 148); conditions: rating scale 0-9, two to four weeks after treatment
# Summary of the method: as §2
# [20] = system: SETVI, Green foxtail, Setaria viridis, (L.)Beau; test: Preemergence herbicidal evaluation (Example 148); conditions: rating scale 0-9, two to four weeks after treatment
# Summary of the method: as §2
# [21] = system: TRZAW, Winter wheat, Tritium Aestivum, L. (Winter); test: Preemergence herbicidal evaluation (Example 148); conditions: rating scale 0-9, two to four weeks after treatment
# Summary of the method: as §2
# [22] = system: XANST, Cocklebur, Xanthium strumariam; test: Preemergence herbicidal evaluation (Example 148); conditions: rating scale 0-9, two to four weeks after treatment
# Summary of the method: as §2
# [23] = system: ZEAMX, Field corn, Zea mays L.; test: Preemergence herbicidal evaluation (Example 148); conditions: rating scale 0-9, two to four weeks after treatment
# Summary of the method: as §2
smiles,measurement,setting,value
C#CCNS(=O)(=O)NC(=O)c1cc(-n2c(=O)cc(C(F)(F)F)n(C)c2=O)c(F)cc1Cl [Example 71],Postemergence herbicidal rating ABUTH,[1]; rate 0.016 kg/ha,9.0
same,Postemergence herbicidal rating ABUTH,[1]; rate 0.032 kg/ha,9.0
same,Postemergence herbicidal rating ALMOY,[2]; rate 0.016 kg/ha,1.0
same,Postemergence herbicidal rating ALMOY,[2]; rate 0.032 kg/ha,1.0
same,Postemergence herbicidal rating AMBEL,[3]; rate 0.016 kg/ha,6.0
same,Postemergence herbicidal rating AMBEL,[3]; rate 0.032 kg/ha,9.0
same,Postemergence herbicidal rating CHEAL,[4]; rate 0.016 kg/ha,5.0
same,Postemergence herbicidal rating CHEAL,[4]; rate 0.032 kg/ha,5.0
same,Postemergence herbicidal rating DIGSA,[5]; rate 0.016 kg/ha,2.0
same,Postemergence herbicidal rating DIGSA,[5]; rate 0.032 kg/ha,3.0
same,Postemergence herbicidal rating ECHCG,[6]; rate 0.016 kg/ha,2.0
same,Postemergence herbicidal rating ECHCG,[6]; rate 0.032 kg/ha,3.0
same,Postemergence herbicidal rating GLXMA,[7]; rate 0.016 kg/ha,8.0
same,Postemergence herbicidal rating GLXMA,[7]; rate 0.032 kg/ha,8.0
same,Postemergence herbicidal rating IPOHE,[8]; rate 0.016 kg/ha,8.0
same,Postemergence herbicidal rating IPOHE,[8]; rate 0.032 kg/ha,9.0
same,Postemergence herbicidal rating SETVI,[9]; rate 0.016 kg/ha,4.0
same,Postemergence herbicidal rating SETVI,[9]; rate 0.032 kg/ha,5.0
same,Postemergence herbicidal rating TRZAW,[10]; rate 0.016 kg/ha,4.5
same,Postemergence herbicidal rating TRZAW,[10]; rate 0.032 kg/ha,4.5
same,Postemergence herbicidal rating ZEAMX,[11]; rate 0.016 kg/ha,6.5
same,Postemergence herbicidal rating ZEAMX,[11]; rate 0.032 kg/ha,6.5
same,Preemergence herbicidal rating ABUTH,[12]; rate 0.125 kg/ha,9.0
same,Preemergence herbicidal rating ABUTH,[12]; rate 0.25 kg/ha,9.0
same,Preemergence herbicidal rating ALMOY,[13]; rate 0.125 kg/ha,0.0
same,Preemergence herbicidal rating ALMOY,[13]; rate 0.25 kg/ha,0.0
same,Preemergence herbicidal rating AMBEL,[14]; rate 0.125 kg/ha,8.0
same,Preemergence herbicidal rating AMBEL,[14]; rate 0.25 kg/ha,8.0
same,Preemergence herbicidal rating CHEAL,[15]; rate 0.125 kg/ha,9.0
same,Preemergence herbicidal rating CHEAL,[15]; rate 0.25 kg/ha,7.0
same,Preemergence herbicidal rating DIGSA,[16]; rate 0.125 kg/ha,0.0
same,Preemergence herbicidal rating DIGSA,[16]; rate 0.25 kg/ha,3.0
same,Preemergence herbicidal rating ECHCG,[17]; rate 0.125 kg/ha,0.0
same,Preemergence herbicidal rating ECHCG,[17]; rate 0.25 kg/ha,3.0
same,Preemergence herbicidal rating GLXMA,[18]; rate 0.125 kg/ha,0.0
same,Preemergence herbicidal rating GLXMA,[18]; rate 0.25 kg/ha,2.0
same,Preemergence herbicidal rating IPOHE,[19]; rate 0.125 kg/ha,9.0
same,Preemergence herbicidal rating IPOHE,[19]; rate 0.25 kg/ha,9.0
same,Preemergence herbicidal rating SETVI,[20]; rate 0.125 kg/ha,0.0
same,Preemergence herbicidal rating SETVI,[20]; rate 0.25 kg/ha,2.0
same,Preemergence herbicidal rating TRZAW,[21]; rate 0.125 kg/ha,0.0
same,Preemergence herbicidal rating TRZAW,[21]; rate 0.25 kg/ha,0.0
same,Preemergence herbicidal rating XANST,[22]; rate 0.125 kg/ha,0.0
same,Preemergence herbicidal rating XANST,[22]; rate 0.25 kg/ha,7.0
same,Preemergence herbicidal rating ZEAMX,[23]; rate 0.125 kg/ha,0.0
same,Preemergence herbicidal rating ZEAMX,[23]; rate 0.25 kg/ha,1.0
CC(C)CCNS(=O)(=O)NC(=O)c1cc(-n2c(=O)cc(C(F)(F)F)n(C)c2=O)c(F)cc1Cl [Example 72],Postemergence herbicidal rating ABUTH,[1]; rate 0.016 kg/ha,9.0
same,Postemergence herbicidal rating ABUTH,[1]; rate 0.032 kg/ha,9.0
same,Postemergence herbicidal rating ALMOY,[2]; rate 0.016 kg/ha,1.0
same,Postemergence herbicidal rating ALMOY,[2]; rate 0.032 kg/ha,2.0
same,Postemergence herbicidal rating AMBEL,[3]; rate 0.016 kg/ha,9.0
same,Postemergence herbicidal rating AMBEL,[3]; rate 0.032 kg/ha,9.0
same,Postemergence herbicidal rating CHEAL,[4]; rate 0.016 kg/ha,8.0
same,Postemergence herbicidal rating CHEAL,[4]; rate 0.032 kg/ha,8.0
same,Postemergence herbicidal rating DIGSA,[5]; rate 0.016 kg/ha,4.0
same,Postemergence herbicidal rating DIGSA,[5]; rate 0.032 kg/ha,4.0
same,Postemergence herbicidal rating ECHCG,[6]; rate 0.016 kg/ha,6.0
same,Postemergence herbicidal rating ECHCG,[6]; rate 0.032 kg/ha,8.0
same,Postemergence herbicidal rating GLXMA,[7]; rate 0.016 kg/ha,8.5
same,Postemergence herbicidal rating GLXMA,[7]; rate 0.032 kg/ha,8.5
same,Postemergence herbicidal rating IPOHE,[8]; rate 0.016 kg/ha,9.0
same,Postemergence herbicidal rating IPOHE,[8]; rate 0.032 kg/ha,9.0
same,Postemergence herbicidal rating SETVI,[9]; rate 0.016 kg/ha,5.0
same,Postemergence herbicidal rating SETVI,[9]; rate 0.032 kg/ha,6.0
same,Postemergence herbicidal rating TRZAW,[10]; rate 0.016 kg/ha,5.5
same,Postemergence herbicidal rating TRZAW,[10]; rate 0.032 kg/ha,6.5
same,Postemergence herbicidal rating ZEAMX,[11]; rate 0.016 kg/ha,7.0
same,Postemergence herbicidal rating ZEAMX,[11]; rate 0.032 kg/ha,7.0
same,Preemergence herbicidal rating ABUTH,[12]; rate 0.125 kg/ha,9.0
same,Preemergence herbicidal rating ABUTH,[12]; rate 0.25 kg/ha,9.0
same,Preemergence herbicidal rating ALMOY,[13]; rate 0.125 kg/ha,1.0
same,Preemergence herbicidal rating ALMOY,[13]; rate 0.25 kg/ha,2.0
same,Preemergence herbicidal rating AMBEL,[14]; rate 0.125 kg/ha,9.0
same,Preemergence herbicidal rating AMBEL,[14]; rate 0.25 kg/ha,9.0
same,Preemergence herbicidal rating CHEAL,[15]; rate 0.125 kg/ha,9.0
same,Preemergence herbicidal rating CHEAL,[15]; rate 0.25 kg/ha,9.0
same,Preemergence herbicidal rating DIGSA,[16]; rate 0.125 kg/ha,2.0
same,Preemergence herbicidal rating DIGSA,[16]; rate 0.25 kg/ha,7.0
same,Preemergence herbicidal rating ECHCG,[17]; rate 0.125 kg/ha,7.0
same,Preemergence herbicidal rating ECHCG,[17]; rate 0.25 kg/ha,6.0
same,Preemergence herbicidal rating GLXMA,[18]; rate 0.125 kg/ha,8.0
same,Preemergence herbicidal rating GLXMA,[18]; rate 0.25 kg/ha,9.0
same,Preemergence herbicidal rating IPOHE,[19]; rate 0.125 kg/ha,9.0
same,Preemergence herbicidal rating IPOHE,[19]; rate 0.25 kg/ha,9.0
same,Preemergence herbicidal rating SETVI,[20]; rate 0.125 kg/ha,4.0
same,Preemergence herbicidal rating SETVI,[20]; rate 0.25 kg/ha,8.0
same,Preemergence herbicidal rating TRZAW,[21]; rate 0.125 kg/ha,0.0
same,Preemergence herbicidal rating TRZAW,[21]; rate 0.25 kg/ha,1.0
same,Preemergence herbicidal rating XANST,[22]; rate 0.125 kg/ha,7.0
same,Preemergence herbicidal rating XANST,[22]; rate 0.25 kg/ha,9.0
same,Preemergence herbicidal rating ZEAMX,[23]; rate 0.125 kg/ha,0.0
same,Preemergence herbicidal rating ZEAMX,[23]; rate 0.25 kg/ha,0.0
